Data published in ChEMBL document CHEMBL1806422, “Effects of C7 substitutions in a high affinity microtubule-binding taxane on antitumor activity and drug transport” (Bioorg Med Chem Lett, 2011).

What was measured:
[1] = Binding affinity to purified p-glycoprotein by fluorescence quenching assay
[2] = Binding affinity to microtubule after 30 mins by epothilone-B competition binding assay
A2780 [3] = assay: Cytotoxicity against human A2780 cells after 48 hrs by MTT assay; assay type: functional, cell-based; settings: A2780, 48 h
[4] = Cytotoxicity against multidrug-resistant human A2780AD cells overexpressing p-gp after 48 hrs by MTT assay; assay type: functional, cell-based; settings: A2780 ADR
A2780 [5] = assay: Resistant index, ratio of IC50 for multidrug-resistant human A2780AD cells overexpressing p-gp to IC50 for human A2780 cells; assay type: functional
[6] = Apparent permeability from apical to basolateral side of human Caco2 cells at 10 uM by LC/MS/MS analysis; assay type: ADME, cell-based; settings: Caco-2
[7] = Apparent permeability from basolateral to apical side of human Caco2 cells at 10 uM by LC/MS/MS analysis; assay type: ADME, cell-based; settings: Caco-2
[8] = Efflux ratio of permeability from basolateral to apical side to apical to basolateral side in human Caco2 cells at 10 uM by LC/MS/MS analysis; assay type: ADME, cell-based; settings: Caco-2

Row | SMILES | Kd [1] [µM] | Kd [2] [µM] | IC50 (A2780 [3]) [µM] | IC50 [4] [µM] | Ratio IC50 (A2780 [5]) | Papp A→B at 10 µM [6] [nm/s] | Papp B→A at 10 µM [7] [nm/s] | efflux ratio at 10 µM [8]
1 | C/C=C(\C)C(=O)N[C@@H](c1ccccc1)[C@@H](O)C(=O)O[C@H]1C[C@@]2(O)[C@@H](OC(=O)c3cccc(N=[N+]=[N-])c3)[C@@H]3[C@]4(OC(C)=O)CO[C@@H]4C[C@H](OC(=O)CC)[C@@]3(C)C(=O)[C@H](O)C(=C1C)C2(C)C | 0.498 | 0.0011 | 0.0027 | 0.014 | 5.2 | 0.95 | 2.65 | 2.79
2 | C/C=C(\C)C(=O)N[C@@H](c1ccccc1)[C@@H](O)C(=O)O[C@H]1C[C@@]2(O)[C@@H](OC(=O)c3cccc(N=[N+]=[N-])c3)[C@@H]3[C@]4(OC(C)=O)CO[C@@H]4C[C@H](OC(=O)C4CC4)[C@@]3(C)C(=O)[C@H](O)C(=C1C)C2(C)C | 2.15 | 0.00095 | 0.022 | 0.293 | 13.3 | 73.5 | 94 | 1.28
3 | C/C=C(\C)C(=O)N[C@@H](c1ccccc1)[C@@H](O)C(=O)O[C@H]1C[C@@]2(O)[C@@H](OC(=O)c3cccc(N=[N+]=[N-])c3)[C@@H]3[C@]4(OC(C)=O)CO[C@@H]4C[C@H](OC(=O)CN(C)C)[C@@]3(C)C(=O)[C@H](O)C(=C1C)C2(C)C | 2.38 | 0.00148 | 0.0072 | 3.2 | 444.4 | 41.9 | 270 | 6.44
4 | C/C=C(\C)C(=O)N[C@@H](c1ccccc1)[C@@H](O)C(=O)O[C@H]1C[C@@]2(O)[C@@H](OC(=O)c3cccc(N=[N+]=[N-])c3)[C@@H]3[C@]4(OC(C)=O)CO[C@@H]4C[C@H](OC(=O)CNC(=O)OC(C)(C)C)[C@@]3(C)C(=O)[C@H](O)C(=C1C)C2(C)C | 6.34 | 0.00081 | 0.0155 | 0.875 | 56.4 | 12.3 | 85.3 | 6.93
5 | C/C=C(\C)C(=O)N[C@@H](c1ccccc1)[C@@H](O)C(=O)O[C@H]1C[C@@]2(O)[C@@H](OC(=O)c3cccc(N=[N+]=[N-])c3)[C@@H]3[C@]4(OC(C)=O)CO[C@@H]4C[C@H](OC(=O)CCl)[C@@]3(C)C(=O)[C@H](O)C(=C1C)C2(C)C | 2.75 | 0.00062 | 0.0173 | 0.71 | 41.2 | 1.9 | 10.7 | 5.63
6 | C/C=C(\C)C(=O)N[C@@H](c1ccccc1)[C@@H](O)C(=O)O[C@H]1C[C@@]2(O)[C@@H](OC(=O)c3cccc(N=[N+]=[N-])c3)[C@@H]3[C@]4(OC(C)=O)CO[C@@H]4C[C@H](OC(=O)CC(F)(F)F)[C@@]3(C)C(=O)[C@H](O)C(=C1C)C2(C)C | 4.31 | 0.00066 | 0.033 | 1.3 | 39.4 | 30 | 66.1 | 2.2
7 | C/C=C(\C)C(=O)N[C@@H](c1ccccc1)[C@@H](O)C(=O)O[C@H]1C[C@@]2(O)[C@@H](OC(=O)c3cccc(N=[N+]=[N-])c3)[C@@H]3[C@]4(OC(C)=O)CO[C@@H]4C[C@H](OC(=O)OCC)[C@@]3(C)C(=O)[C@H](O)C(=C1C)C2(C)C | 1.42 | 0.0009 | 0.0112 | 0.17 | 15.2 | 74.6 | 126 | 1.68
8 | C/C=C(\C)C(=O)N[C@@H](c1ccccc1)[C@@H](O)C(=O)O[C@H]1C[C@@]2(O)[C@@H](OC(=O)c3cccc(N=[N+]=[N-])c3)[C@@H]3[C@]4(OC(C)=O)CO[C@@H]4C[C@H](OC(=O)NC)[C@@]3(C)C(=O)[C@H](O)C(=C1C)C2(C)C | 3.15 | 0.00215 | 0.0074 | 1.4 | 189.2 | 25.5 | 191 | 7.48
9 | C/C=C(\C)C(=O)N[C@@H](c1ccccc1)[C@@H](O)C(=O)O[C@H]1C[C@@]2(O)[C@@H](OC(=O)c3cccc(N=[N+]=[N-])c3)[C@@H]3[C@]4(OC(C)=O)CO[C@@H]4C[C@H](OC(=O)N(C)C)[C@@]3(C)C(=O)[C@H](O)C(=C1C)C2(C)C | 5.29 | 0.00245 | 0.026 | 0.95 | 36.5 | – | – | –
10 | CC(=O)O[C@H]1C(=O)[C@@]2(C)[C@H]([C@H](OC(=O)c3ccccc3)[C@]3(O)C[C@H](OC(=O)[C@H](O)[C@@H](NC(=O)c4ccccc4)c4ccccc4)C(C)=C1C3(C)C)[C@]1(OC(C)=O)CO[C@@H]1C[C@@H]2O [PACLITAXEL] | 0.035 | 0.056 | 0.00062 | 1.9 | 3064 | 6.6 | 50.3 | 7.62
11 | CC(C)NCC(O)COc1cccc2ccccc12 (stereo not given) [PROPRANOLOL] | – | – | – | – | – | 192 | 234 | 1.21
